Laboratory results published in patent publication US8754073B2, “Substituted piperazino-dihydrothienopyrimidines” (Boehringer Ingelheim International GmbH, priority 2007, dated 2014).

Target: PDE4B (Homo sapiens, UniProt Q07343)
Test: Scintillation Proximity Assay (SPA) of PDE4B enzyme activity ([H3]-cAMP cleavage)
Type: biochemical
Conditions: test substance 1 μM
Description: The inhibitions (in %) at 1 μM of the individual Example substances are given in the following Table of Examples and were determined as follows:
The Scintillation Proximity Assay (SPA) (GE Healthcare, No. TRKQ7090) was carried out by using the different affinities of cyclic 3′-5′-adenosinemonophosphate (cAMP, low affinity) and linear 5′-adenosinemonophosphate (AMP, high affinity) for yttrium silicate scintillator beads. The cAMP specific phosphodiesterase (PDE) PDE4B cleaves the 3′-phosphoester bond of tritium-labelled [H3]-cAMP to form [H3]-5′-AMP. This [H3]-AMP accumulates on the scintillator beads because of its higher affinity for them and causes scintillation events (flashes of light) which are measured in a Wallac Microbeta Scintillation Counter.
The experiment starts with a one-hour incubation of [H3]-cAMP with the PDE4B enzyme in assay buffer at 30° C., in each case once with the Example substance to be tested (in a concentration of 1 μM) and once without the Example substance to be tested.
After this incubation, the reaction is stopped by the addition of the beads. The beads have an opportunity to settle in the next 45 minutes, then the measurement is carried out in the Scintillation Counter. If the substance is capable of inhibiting the enzymatic activity of the PDE4B, less [H3]-AMP is produced during the incubation phase and fewer scintillation events can be measured.

[1] = one-hour incubation of [H3]-cAMP with PDE4B enzyme at 30° C.
[2] = one-hour incubation with [H3]-cAMP at 30° C.

PDE4B, sequence (Q07343 whole entry, species assumed): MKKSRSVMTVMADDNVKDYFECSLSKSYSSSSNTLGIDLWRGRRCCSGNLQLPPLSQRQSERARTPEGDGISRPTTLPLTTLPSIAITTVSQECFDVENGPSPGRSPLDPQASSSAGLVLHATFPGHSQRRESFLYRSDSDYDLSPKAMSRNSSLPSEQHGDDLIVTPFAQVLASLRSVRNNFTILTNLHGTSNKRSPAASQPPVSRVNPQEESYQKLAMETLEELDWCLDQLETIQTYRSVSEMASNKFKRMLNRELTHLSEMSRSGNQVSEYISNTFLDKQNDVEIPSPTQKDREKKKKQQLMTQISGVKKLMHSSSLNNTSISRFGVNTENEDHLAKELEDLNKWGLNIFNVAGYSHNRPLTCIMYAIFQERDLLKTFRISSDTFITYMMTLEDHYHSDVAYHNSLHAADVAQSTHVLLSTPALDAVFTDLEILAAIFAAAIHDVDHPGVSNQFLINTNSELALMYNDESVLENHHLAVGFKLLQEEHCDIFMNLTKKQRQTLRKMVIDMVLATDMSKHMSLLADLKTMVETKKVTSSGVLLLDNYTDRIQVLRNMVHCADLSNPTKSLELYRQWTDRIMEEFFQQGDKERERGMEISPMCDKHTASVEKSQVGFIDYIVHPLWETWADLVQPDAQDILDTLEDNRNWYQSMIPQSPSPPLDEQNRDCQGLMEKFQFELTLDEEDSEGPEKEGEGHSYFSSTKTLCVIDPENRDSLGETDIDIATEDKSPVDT

inhibition at 1 µM [1] [%]	inhibition at 1 µM [2] [%]	Structure (SMILES)
–	92	[O-][S+]1CCc2nc(N3CCC(COCc4ccccc4)(c4ccc(Cl)cc4)CC3)nc(NC3(CO)CC3)c21 (stereo not drawn) [Example 309]
–	93	COC(=O)c1ccc(OC2CCN(c3nc4c(c(NC5CCOCC5)n3)[S+]([O-])CC4)CC2)cc1 (stereo not drawn) [Example 176]
83	–	CC(C)[C@H](CO)Nc1nc(N2CCC(c3nnc4ccccn34)CC2)nc2c1[S+]([O-])CC2 (stereo partly drawn) [Example 155]
–	94	[O-][S+]1CCc2nc(N3CCC(c4n[nH]c5ccccc45)CC3)nc(NC3CCOCC3)c21 (stereo not drawn) [Example 221]
–	93	[O-][S+]1CCc2nc(N3CCC(Oc4ccc(C5=NCCO5)cc4)CC3)nc(NC3CCOCC3)c21 (stereo not drawn) [Example 180, (2-{4-[4-(4,5-dihydroxazol-2-yl)-phenoxy]-piperidin-1-yl}-5-oxo-6,7-dihydro-5H-5λ^4-thieno[3,2-d]pyrimidin-4-yl)-(tetrahydropyran-4-yl)-amine]
–	92	COC1(c2ccc(Cl)cc2)CCN(c2nc3c(c(Nc4cccc(F)c4)n2)[S+]([O-])CC3)CC1 (stereo not drawn) [Example 316]
–	89	[O-][S+]1CCc2nc(N3CCC(c4cc(-c5cccs5)[nH]n4)CC3)nc(Nc3cccc(F)c3)c21 (stereo not drawn) [Example 287]
–	95	COC1(c2ccc(Cl)cc2)CCN(c2nc3c(c(N[C@H]4CCC(=O)N(C)C4)n2)[S+]([O-])CC3)CC1 (stereo partly drawn) [Example 261, 5-{2-[4-(4-chlorophenyl)-4-methoxypiperidin-1-yl]-5-oxo-6,7-dihydro-5H-5λ^4-thieno[3,2-d]pyrimidin-4-ylamino}-1-methylpiperidin-2-one]
–	96	Cc1oc(C2CCN(c3nc4c(c(NC5(CO)CC5)n3)[S+]([O-])CC4)CC2)nc1-c1ccccc1 (stereo not drawn) [Example 277]
–	88	CN1CCC(N(C)C(=O)c2cccc(C3CCN(c4nc5c(c(NC6CCOCC6)n4)[S+]([O-])CC5)CC3)c2)CC1 (stereo not drawn) [Example 248]
–	94	Cc1cn(C)nc1CN(C)C(=O)c1ccc(OC2CCN(c3nc4c(c(NC5CCOCC5)n3)[S+]([O-])CC4)CC2)cc1 (stereo not drawn) [Example 239]
65	–	O=S1(=O)CCc2nc(N3CCC(c4ccc(Cl)cc4)CC3)nc(NC3CCOCC3)c21 [Example 334, {2-[4-(4-chlorophenyl)-piperidin-1-yl]-5.5-dioxo-6,7-dihydro-5H-5λ^6-thieno[3,2-d]pyrimidin-4-yl}-(tetrahydropyran-4-yl)-amine]
–	91	[O-][S+]1CCc2nc(N3CCC(Oc4ccc(F)cc4)CC3)nc(NC3(CO)CC3)c21 (stereo not drawn) [Example 167]
–	95	Cn1cc(C2CCN(c3nc4c(c(NC5CCOCC5)n3)[S+]([O-])CC4)CC2)c2cc(C(C)(C)C)ccc21 (stereo not drawn) [Example 192, {2-[4-(5-tert-butyl-1-methyl-1H-indol-3-yl)-piperidin-1-yl]-5-oxo-6,7-dihydro-5H-5λ^4-thieno[3,2-d]pyrimidin-4-yl}-(tetrahydropyran-4-yl)-amine]
–	95	CN1C[C@@H](Nc2nc(N3CCC(CN(C)S(C)(=O)=O)(c4ccccc4)CC3)nc3c2[S+]([O-])CC3)CCC1=O (stereo partly drawn) [Example 270, N-methyl-N-{1-[4-(1-methyl-6-oxo-piperidin-3-ylamino)-5-oxo-6,7-dihydro-5H-5λ^4-thieno[3,2-d]pyrimidin-2-yl]-4-phenylpiperidin-4-ylmethyl}-methanesulphonamide]
–	95	Cc1oc(C2CCN(c3nc4c(c(NC5CCOCC5)n3)[S+]([O-])CC4)CC2)nc1-c1ccccc1 (stereo not drawn) [Example 276]
–	83	CS(=O)(=O)NCC1(c2ccccc2)CCN(c2nc3c(c(Nc4cccc(F)c4)n2)[S+]([O-])CC3)CC1 (stereo not drawn) [Example 327]
86	–	CC(C)c1noc(C2CCN(c3nc4c(c(N[C@@H](CO)C(C)C)n3)[S+]([O-])CC4)CC2)n1 (stereo partly drawn) [Example 160]
85	–	CN1C[C@@H](Nc2nc(N3CCC(c4ccc(Cl)cc4)CC3)nc3c2S(=O)(=O)CC3)CCC1=O [Example 335, 5-{2-[4-(4-chlorophenyl)-piperidin-1-yl]-5.5-dioxo-6,7-dihydro-5H-5λ^6-thieno[3,2-d]pyrimidin-4-ylamino}-1-methylpiperidin-2-one]
–	86	N#CC1(c2ccc(F)cc2)CCN(c2nc3c(c(NC4CCOCC4)n2)[S+]([O-])CC3)CC1 (stereo not drawn) [Example 293]
–	83	O=C(c1ccc(C2CCN(c3nc4c(c(NC5CCOCC5)n3)[S+]([O-])CC4)CC2)cc1)N1CCOCC1 (stereo not drawn) [Example 227]
–	92	[O-][S+]1CCc2nc(N3CCC(Oc4ccc(F)cc4)CC3)nc(NC3CCOCC3)c21 (stereo not drawn) [Example 166]
–	94	O=C(C1CC1)N1CCc2ccc(OC3CCN(c4nc5c(c(NC6CCOCC6)n4)[S+]([O-])CC5)CC3)cc2CC1 (stereo not drawn) [Example 214, cyclopropyl-(7-{1-[5-oxo-4-(tetrahydropyran-4-ylamino)-6,7-dihydro-5H-5λ^4-thieno[3,2-d]pyrimidin-2-yl]-piperidin-4-yloxy}-1,2,4,5-tetrahydrobenzo[d]azepin-3-yl)-methanone]
–	93	[O-][S+]1CCc2nc(N3CCC(c4nc5c(o4)CCCC5)CC3)nc(NC3(CO)CC3)c21 (stereo not drawn) [Example 328]
–	92	[O-][S+]1CCc2nc(N3CCC(OCc4ccccc4)(c4ccc(Cl)cc4)CC3)nc(NC3(CO)CC3)c21 (stereo not drawn) [Example 320]
–	89	COCC1(c2ccc(Cl)cc2)CCN(c2nc3c(c(NC4(CO)CC4)n2)[S+]([O-])CC3)CC1 (stereo not drawn) [Example 303]

Continued, molecule first:

Structure (SMILES)	inhibition at 1 µM [1] [%]	inhibition at 1 µM [2] [%]
CN1C(=O)Nc2ccccc2C12CCN(c1nc3c(c(Nc4cccc(F)c4)n1)[S+]([O-])CC3)CC2 (stereo not drawn) [Example 73, 1-(4-(3-fluorophenylamino)-5-oxo-6,7-dihydro-5H-5λ^4-thieno[3,2-d]pyrimidin-2-yl)-3′-methyl-1′H-spiro[piperidin-4,4′-quinazolin]-2′(3′H)-one]	94	–
[O-][S+]1CCc2nc(N3CCC(c4nnc5ccccn45)CC3)nc(Nc3cccc(F)c3)c21 (stereo not drawn) [Example 139]	94	–
CCc1[nH]c2ccc(F)cc2c1C1CCN(c2nc3c(c(NC4CCOCC4)n2)[S+]([O-])CC3)CC1 (stereo not drawn) [Example 67]	93	–
CN1C[C@@H](Nc2nc(N3CCC(c4ccc(Cl)cc4)CC3)nc3c2[S+]([O-])CC3)CCC1=O (stereo partly drawn) [Example 5, (S)-5-{2-[4-(4-chlorophenyl)-piperidin-1-yl]-5-oxo-6,7-dihydro-5H-5λ^4-thieno[3,2-d]pyrimidin-4-ylamino}-1-methylpiperidin-2-one]	94	–
COC(=O)c1cccc(C2CCN(c3nc4c(c(Nc5cccc(F)c5)n3)[S+]([O-])CC4)CC2)c1 (stereo not drawn) [Example 135]	96	–
CN1C[C@@H](Nc2nc(N3CCC(c4ccc(C#N)cc4)CC3)nc3c2[S+]([O-])CC3)CCC1=O (stereo partly drawn) [Example 49]	96	–
N#Cc1cccc(C2CCN(c3nc4c(c(NC5(CO)CC5)n3)[S+]([O-])CC4)CC2)c1 (stereo not drawn) [Example 107]	94	–
CCc1[nH]c2ccc(F)cc2c1C1CCN(c2nc3c(c(Nc4cccc(F)c4)n2)[S+]([O-])CC3)CC1 (stereo not drawn) [Example 82, {2-[4-(2-Ethyl-5-Fluoro-1H-Indol-3-Yl)-Piperidin-1-Yl]-5-Oxo-6,7-Dihydro-5H-5λ^4-Thieno[3,2-d]Pyrimidin-4-Yl}-(3-Fluorophenyl)-Amine]	92	–
[O-][S+]1CCc2nc(N3CCC(c4ccc(Cl)cc4)CC3)nc(NC3(CO)CC3)c21 (stereo not drawn) [Example 2, (1-{2-[4-(4-Chlorophenyl)-Piperidin-1-Yl]-5-Oxo-6,7-Dihydro-5H-5λ^4-Thieno[3,2-d]Pyrimidin-4-Ylamino}-Cyclopropyl)-Methanol]	94	–
COC(=O)c1cccc(C2CCN(c3nc4c(c(NC5(CO)CC5)n3)[S+]([O-])CC4)CC2)c1 (stereo not drawn) [Example 104]	95	–
CC(C)[C@H](CO)Nc1nc(N2CCC(c3cccc(Cl)c3)CC2)nc2c1[S+]([O-])CC2 (stereo partly drawn) [Example 24]	94	–
CC(C)[C@H](CO)Nc1nc(N2CCC(c3c[nH]c4ccccc34)CC2)nc2c1[S+]([O-])CC2 (stereo partly drawn) [Example 12]	94	–
[O-][S+]1CCc2nc(N3CCC(c4noc5ccc(F)cc45)CC3)nc(NC3(CO)CC3)c21 (stereo not drawn) [Example 106]	95	–
CC(C)[C@H](CO)Nc1nc(N2CCC(c3noc4cc(F)ccc34)CC2)nc2c1[S+]([O-])CC2 (stereo partly drawn) [Example 152]	95	–
O=C1Nc2ccccc2C2(CCN(c3nc4c(c(Nc5cccc(F)c5)n3)[S+]([O-])CC4)CC2)N1 (stereo not drawn) [Example 81]	83	–
CS(=O)(=O)N1CC2(CCN(c3nc4c(c(NC5CCOCC5)n3)[S+]([O-])CC4)CC2)c2ccccc21 (stereo not drawn) [Example 59]	90	–
[O-][S+]1CCc2nc(N3CCC(c4c[nH]cn4)CC3)nc(NC3(CO)CC3)c21 (stereo not drawn) [Example 27]	87	–
CC(C)[C@H](CO)Nc1nc(N2CCC(c3noc4ccccc34)CC2)nc2c1[S+]([O-])CC2 (stereo partly drawn) [Example 16, (R)-2-[2-(4-Benzo[d]Isoxazol-3-Yl-Piperidin-1-Yl)-5-Oxo-6,7-Dihydro-5H-5λ^4-Thieno[3,2-d]Pyrimidin-4-Ylamino]-3-Methylbutan-1-Ol]	96	–
CC(C)[C@H](CO)Nc1nc(N2CCC(O)(c3cc(F)cc(F)c3)CC2)nc2c1[S+]([O-])CC2 (stereo partly drawn) [Example 18]	92	–
